Source: US20230150974A1 (Foghorn Therapeutics Inc., priority 2020, published 2023)

Assays:
[1] = target: T1, HiBiT-BRM (Homo sapiens, UniProt P51531); experiment: HiBiT-BRM cell-based degradation assay (Nano-Glo HiBiT Lytic Detection); conditions: HeLa cells expressing HiBiT-BRM, 24 h; for DC50: read-out: BRM HiBit Degradation IC50
T1 construct: expressed in transfected cells
How it was run: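 Luminescence from HiBiT–LgBiT complementation in lysates of a stable HiBiT-BRM HeLa line measured after 24 h compound exposure. Degradation expressed as percent relative to DMSO-treated cells and cells given 2 μM of a known BRM/BRG1 degrader.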

[2] = target: T2, HiBit-BRG1 (Homo sapiens, UniProt P51532); experiment: HiBit-BRG1 cell-based degradation assay (Nano-Glo HiBiT Lytic Detection); conditions: HeLa cells expressing HiBit-BRG1 and LgBit, 24 h; for DC50: read-out: BRG1 HiBit Degradation IC50; for Dmax: read-out: BRG1 HiBit Degradation Maximum (%)
T2 construct: expressed in transfected cells
How it was run: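 Luminescence from reconstituted NanoBiT luciferase after lytic detection served as read-out of remaining HiBit-BRG1 in stable HeLa cells, which also express LgBit. Cells were seeded at 5000 per well and incubated with compound for 24 h. DMSO and a 2 μM known degrader defined the control range.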

T2 sequence (P51532 whole entry): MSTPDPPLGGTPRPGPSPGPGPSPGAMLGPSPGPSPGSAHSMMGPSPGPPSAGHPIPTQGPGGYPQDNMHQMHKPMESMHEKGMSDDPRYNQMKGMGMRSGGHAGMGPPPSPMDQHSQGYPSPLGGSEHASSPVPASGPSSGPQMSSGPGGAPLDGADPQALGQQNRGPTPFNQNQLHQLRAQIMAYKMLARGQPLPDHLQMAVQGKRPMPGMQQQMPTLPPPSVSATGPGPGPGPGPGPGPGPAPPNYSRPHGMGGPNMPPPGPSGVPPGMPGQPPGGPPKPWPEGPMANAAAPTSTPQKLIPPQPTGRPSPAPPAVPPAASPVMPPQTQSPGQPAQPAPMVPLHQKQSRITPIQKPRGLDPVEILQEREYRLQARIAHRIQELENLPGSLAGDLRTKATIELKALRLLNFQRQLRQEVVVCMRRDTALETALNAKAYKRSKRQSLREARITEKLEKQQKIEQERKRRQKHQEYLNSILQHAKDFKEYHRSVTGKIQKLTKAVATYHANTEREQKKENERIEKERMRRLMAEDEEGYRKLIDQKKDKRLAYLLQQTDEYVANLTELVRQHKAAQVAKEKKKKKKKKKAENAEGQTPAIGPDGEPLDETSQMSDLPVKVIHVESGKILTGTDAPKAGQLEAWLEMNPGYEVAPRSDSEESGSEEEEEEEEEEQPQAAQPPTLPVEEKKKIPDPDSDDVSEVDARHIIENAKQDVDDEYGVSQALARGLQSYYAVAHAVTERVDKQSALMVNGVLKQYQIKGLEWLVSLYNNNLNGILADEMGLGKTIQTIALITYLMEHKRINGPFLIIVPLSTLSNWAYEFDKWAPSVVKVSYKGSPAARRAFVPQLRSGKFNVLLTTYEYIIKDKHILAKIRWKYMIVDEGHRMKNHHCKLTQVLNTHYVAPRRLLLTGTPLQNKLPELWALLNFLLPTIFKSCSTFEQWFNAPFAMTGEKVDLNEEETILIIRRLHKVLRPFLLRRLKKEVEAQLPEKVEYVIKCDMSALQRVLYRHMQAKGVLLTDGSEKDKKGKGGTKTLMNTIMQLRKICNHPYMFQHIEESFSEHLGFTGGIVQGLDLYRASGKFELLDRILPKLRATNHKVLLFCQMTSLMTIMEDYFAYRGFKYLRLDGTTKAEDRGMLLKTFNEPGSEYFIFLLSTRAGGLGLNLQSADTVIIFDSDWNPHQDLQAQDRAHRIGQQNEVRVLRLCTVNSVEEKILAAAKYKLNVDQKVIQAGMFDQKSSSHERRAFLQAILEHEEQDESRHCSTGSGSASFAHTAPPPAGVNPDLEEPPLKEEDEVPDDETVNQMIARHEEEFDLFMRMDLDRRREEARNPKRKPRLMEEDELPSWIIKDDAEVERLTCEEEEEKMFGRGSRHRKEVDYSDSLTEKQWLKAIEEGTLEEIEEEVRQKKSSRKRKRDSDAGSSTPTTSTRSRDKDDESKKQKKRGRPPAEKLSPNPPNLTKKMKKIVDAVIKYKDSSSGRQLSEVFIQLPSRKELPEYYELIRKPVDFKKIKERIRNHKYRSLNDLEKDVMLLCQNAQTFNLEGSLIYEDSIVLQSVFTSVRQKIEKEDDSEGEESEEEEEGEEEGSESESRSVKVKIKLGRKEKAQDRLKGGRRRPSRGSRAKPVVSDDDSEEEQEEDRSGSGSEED
T1 sequence (P51531 whole entry): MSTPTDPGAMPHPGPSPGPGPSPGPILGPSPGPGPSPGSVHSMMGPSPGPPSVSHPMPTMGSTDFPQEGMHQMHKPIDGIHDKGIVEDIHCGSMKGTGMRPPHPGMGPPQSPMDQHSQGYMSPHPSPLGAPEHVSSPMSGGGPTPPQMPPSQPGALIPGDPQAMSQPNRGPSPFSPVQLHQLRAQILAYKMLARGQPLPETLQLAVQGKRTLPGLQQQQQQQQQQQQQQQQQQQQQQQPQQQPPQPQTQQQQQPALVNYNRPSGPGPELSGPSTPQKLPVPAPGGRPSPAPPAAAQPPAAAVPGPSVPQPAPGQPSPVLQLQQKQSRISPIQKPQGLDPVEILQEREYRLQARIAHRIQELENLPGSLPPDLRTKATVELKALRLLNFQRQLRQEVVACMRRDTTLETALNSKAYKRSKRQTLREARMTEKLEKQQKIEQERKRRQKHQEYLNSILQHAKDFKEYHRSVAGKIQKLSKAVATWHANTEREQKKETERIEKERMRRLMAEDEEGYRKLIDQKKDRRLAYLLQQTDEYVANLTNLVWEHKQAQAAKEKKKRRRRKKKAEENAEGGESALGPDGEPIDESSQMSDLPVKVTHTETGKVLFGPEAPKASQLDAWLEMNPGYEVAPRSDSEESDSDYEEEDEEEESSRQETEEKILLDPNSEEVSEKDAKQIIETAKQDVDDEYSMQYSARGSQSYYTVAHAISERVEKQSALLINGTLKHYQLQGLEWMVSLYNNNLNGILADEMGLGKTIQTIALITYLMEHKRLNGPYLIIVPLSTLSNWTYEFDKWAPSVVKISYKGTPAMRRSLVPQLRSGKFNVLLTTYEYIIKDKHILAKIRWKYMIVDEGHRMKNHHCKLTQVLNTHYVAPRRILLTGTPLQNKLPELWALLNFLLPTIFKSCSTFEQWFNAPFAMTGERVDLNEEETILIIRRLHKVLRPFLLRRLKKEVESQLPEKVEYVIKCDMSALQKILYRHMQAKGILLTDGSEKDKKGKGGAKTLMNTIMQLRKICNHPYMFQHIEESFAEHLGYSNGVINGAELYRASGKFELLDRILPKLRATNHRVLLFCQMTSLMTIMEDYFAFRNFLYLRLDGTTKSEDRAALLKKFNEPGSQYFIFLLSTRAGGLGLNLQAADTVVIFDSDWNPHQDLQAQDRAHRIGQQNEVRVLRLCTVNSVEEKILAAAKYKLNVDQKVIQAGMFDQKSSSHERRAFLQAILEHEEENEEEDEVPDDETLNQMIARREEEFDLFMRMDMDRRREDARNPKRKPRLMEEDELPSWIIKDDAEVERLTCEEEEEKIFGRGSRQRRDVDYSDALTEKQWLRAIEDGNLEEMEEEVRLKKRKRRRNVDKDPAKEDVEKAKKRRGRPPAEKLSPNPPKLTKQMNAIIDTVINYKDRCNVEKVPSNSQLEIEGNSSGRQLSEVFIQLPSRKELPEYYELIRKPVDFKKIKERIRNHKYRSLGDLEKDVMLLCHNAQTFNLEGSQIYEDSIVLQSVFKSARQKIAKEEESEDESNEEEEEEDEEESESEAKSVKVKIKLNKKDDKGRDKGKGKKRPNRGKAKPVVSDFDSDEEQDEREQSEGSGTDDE

With `Cc1ncsc1-c1ccc(CNC(=O)[C@@H]2C[C@@H](O)CN2C(=O)[C@@H](NC(=O)CN2CCN(CCOc3cc(N4[C@@H]5CC[C@H]4CN(c4cc(-c6ccccc6O)nnc4N)C5)ccn3)CC2)C(C)(C)C)cc1` [Compound 233, (2S,4R)-1-((2S)-2-(2-(4-(2-((4-(3-(3-amino-6-(2-hydroxyphenyl)pyridazin-4-yl)-3,8-diazabicyclo[3.2.1]octan-8-yl)pyridin-2-yl)oxy)ethyl)piperazin-1-yl)acetamido)-3,3-dimethylbutanoyl)-4-hydroxy-N-(4-(4-methylthiazol-5-yl)benzyl)pyrrolidine-2-carboxamide] the “BRM HiBit Degradation Maximum (%)” value [1] was “A (“A” indicates maximum degradation ≥75%)”, the DC50 [1] was over 0.01 µM and the DC50 [2] was over 0.1 µM. It also gave a Dmax [2] of over 75%.
`Cc1ncsc1-c1ccc(CNC(=O)[C@@H]2C[C@@H](O)CN2C(=O)[C@@H](NC(=O)CCCCN2CCN(CCOc3cc(N4[C@@H]5CC[C@H]4CN(c4cc(-c6ccccc6O)nnc4N)C5)ccn3)CC2)C(C)(C)C)cc1` [Compound 234, (2S,4R)-1-((2S)-2-(5-(4-(2-((4-(3-(3-amino-6-(2-hydroxyphenyl)pyridazin-4-yl)-3,8-diazabicyclo[3.2.1]octan-8-yl)pyridin-2-yl)oxy)ethyl)piperazin-1-yl)pentanamido)-3,3-dimethylbutanoyl)-4-hydroxy-N-(4-(4-methylthiazol-5-yl)benzyl)pyrrolidine-2-carboxamide] was tested, and the “BRM HiBit Degradation Maximum (%)” value [1] was “A (“A” indicates maximum degradation ≥75%)”, the DC50 [1] was over 0.1 µM and the DC50 [2] was over 1 µM. For the same molecule, the Dmax [2] was under 50%.
For `Cc1ncsc1-c1ccc(CNC(=O)[C@@H]2C[C@@H](O)CN2C(=O)[C@@H](NC(=O)CCN2C[C@H]3CN(CCC(=O)NCc4ccc(CCOc5cc(-c6ccccc6O)nnc5N)cc4)C[C@H]3C2)C(C)(C)C)cc1` [Compound 235, (2S,4R)-1-((2S)-2-(3-(5-(3-((4-(2-((3-amino-6-(2-hydroxyphenyl)pyridazin-4-yl)oxy)ethyl)benzyl)amino)-3-oxopropyl)hexahydropyrrolo[3,4-c]pyrrol-2(1H)-yl)propanamido)-3,3-dimethylbutanoyl)-4-hydroxy-N-(4-(4-methylthiazol-5-yl)benzyl)pyrrolidine-2-carboxamide], the “BRM HiBit Degradation Maximum (%)” value [1] was “C (“C” indicates maximum degradation <50%)”, the DC50 [1] was over 1 µM and the DC50 [2] was over 1 µM. The Dmax [2] was under 50%.
For `Cc1ncsc1-c1ccc(CNC(=O)[C@@H]2C[C@@H](O)CN2C(=O)[C@@H](NC(=O)CCN2CCC(OC3CCN(CCC(=O)NCc4ccc(CCOc5cc(-c6ccccc6O)nnc5N)cc4)CC3)CC2)C(C)(C)C)cc1` [Compound 236, (2S,4R)-1-((S)-2-(3-(4-((1-(3-((4-(2-((3-amino-6-(2-hydroxyphenyl)pyridazin-4-yl)oxy)ethyl)benzyl)amino)-3-oxopropyl)piperidin-4-yl)oxy)piperidin-1-yl)propanamido)-3,3-dimethylbutanoyl)-4-hydroxy-N-(4-(4-methylthiazol-5-yl)benzyl)pyrrolidine-2-carboxamide], the “BRM HiBit Degradation Maximum (%)” value [1] was “B (“B” indicates maximum degradation ≥50%)”, the DC50 [1] was over 1 µM and the DC50 [2] was over 1 µM. The Dmax [2] was under 50%.
`Cc1ncsc1-c1ccc([C@H](C)NC(=O)[C@@H]2C[C@@H](O)CN2C(=O)[C@@H](c2cc(OCCN3CC(OC4CCN(C(=O)c5ccc(CCOc6cc(-c7ccccc7O)nnc6N)cc5)CC4)C3)no2)C(C)C)cc1` [Compound 237, (2S,4R)-1-((R)-2-(3-(2-(3-((1-(4-(2-((3-amino-6-(2-hydroxyphenyl)pyridazin-4-yl)oxy)ethyl)benzoyl)piperidin-4-yl)oxy)azetidin-1-yl)ethoxy)isoxazol-5-yl)-3-methylbutanoyl)-4-hydroxy-N-((S)-1-(4-(4-methylthiazol-5-yl)phenyl)ethyl)pyrrolidine-2-carboxamide] was tested, and the “BRM HiBit Degradation Maximum (%)” value [1] was “A (“A” indicates maximum degradation ≥75%)”, the DC50 [1] was over 0.01 µM and the DC50 [2] was over 0.1 µM. It also gave a Dmax [2] of over 50%.
For `Cc1ncsc1-c1ccc(CNC(=O)[C@@H]2C[C@@H](O)CN2C(=O)[C@@H](NC(=O)CCN2CC(OC3CCN(C(=O)c4ccc(CCOc5cc(-c6ccccc6O)nnc5N)cc4)CC3)C2)C(C)(C)C)cc1` [Compound 238, (2S,4R)-1-((S)-2-(3-(3-((1-(4-(2-((3-amino-6-(2-hydroxyphenyl)pyridazin-4-yl)oxy)ethyl)benzoyl)piperidin-4-yl)oxy)azetidin-1-yl)propanamido)-3,3-dimethylbutanoyl)-4-hydroxy-N-(4-(4-methylthiazol-5-yl)benzyl)pyrrolidine-2-carboxamide], the “BRM HiBit Degradation Maximum (%)” value [1] was “C (“C” indicates maximum degradation <50%)”, the DC50 [1] was over 1 µM and the DC50 [2] was over 1 µM. For the same molecule, the Dmax [2] was under 50%.
With `Cc1ncsc1-c1ccc([C@H](C)NC(=O)[C@@H]2C[C@@H](O)CN2C(=O)[C@@H](c2cc(OCCNCCCCCCCCC(=O)NCc3ccc(CCOc4cc(-c5ccccc5O)nnc4N)cc3)no2)C(C)C)cc1` [Compound 239, (2S,4R)-1-((R)-2-(3-(2-((9-((4-(2-((3-amino-6-(2-hydroxyphenyl)pyridazin-4-yl)oxy)ethyl)benzyl)amino)-9-oxononyl)amino)ethoxy)isoxazol-5-yl)-3-methylbutanoyl)-4-hydroxy-N-((S)-1-(4-(4-methylthiazol-5-yl)phenyl)ethyl)pyrrolidine-2-carboxamide] the “BRM HiBit Degradation Maximum (%)” value [1] was “A (“A” indicates maximum degradation ≥75%)”, the DC50 [1] was over 0.1 µM and the DC50 [2] was over 1 µM. For the same molecule, the Dmax [2] was under 50%.
In the case of `Cc1ncsc1-c1ccc([C@H](C)NC(=O)[C@@H]2C[C@@H](O)CN2C(=O)[C@@H](c2cc(OCCN3CC4CN(C(=O)c5ccc(CCOc6cc(-c7ccccc7O)nnc6N)cc5)C4C3)no2)C(C)C)cc1` (stereo partly drawn) [Compound 240, (2S,4R)-1-((2R)-2-(3-(2-(6-(4-(2-((3-amino-6-(2-hydroxyphenyl)pyridazin-4-yl)oxy)ethyl)benzoyl)-3,6-diazabicyclo[3.2.0]heptan-3-yl)ethoxy)isoxazol-5-yl)-3-methylbutanoyl)-4-hydroxy-N-((S)-1-(4-(4-methylthiazol-5-yl)phenyl)ethyl)pyrrolidine-2-carboxamide], the “BRM HiBit Degradation Maximum (%)” value [1] is reported as “A (“A” indicates maximum degradation ≥75%)”, the DC50 [1] is reported as over 0.1 µM and the DC50 [2] is reported as over 0.1 µM. The Dmax [2] was over 75%.
`Cc1ncsc1-c1ccc(CNC(=O)[C@@H]2C[C@@H](O)CN2C(=O)[C@@H](NC(=O)CCN2CC3CN(C(=O)c4ccc(CCOc5cc(-c6ccccc6O)nnc5N)cc4)C3C2)C(C)(C)C)cc1` (stereo partly drawn) [Compound 241, (2S,4R)-1-((2S)-2-(3-(6-(4-(2-((3-amino-6-(2-hydroxyphenyl)pyridazin-4-yl)oxy)ethyl)benzoyl)-3,6-diazabicyclo[3.2.0]heptan-3-yl)propanamido)-3,3-dimethylbutanoyl)-4-hydroxy-N-(4-(4-methylthiazol-5-yl)benzyl)pyrrolidine-2-carboxamide] was tested, and the “BRM HiBit Degradation Maximum (%)” value [1] was “C (“C” indicates maximum degradation <50%)”, the DC50 [1] was over 1 µM and the DC50 [2] was over 1 µM. For the same molecule, the Dmax [2] was under 50%.
In the case of `Cc1ncsc1-c1ccc(CNC(=O)[C@@H]2C[C@@H](O)CN2C(=O)[C@@H](NC(=O)CCCN2CCN(CCOc3cc(N4[C@@H]5CC[C@H]4CN(c4cc(-c6ccccc6O)nnc4N)C5)ccn3)CC2)C(C)(C)C)cc1` [Compound 242, (2S,4R)-1-((2S)-2-(4-(4-(2-((4-(3-(3-amino-6-(2-hydroxyphenyl)pyridazin-4-yl)-3,8-diazabicyclo[3.2.1]octan-8-yl)pyridin-2-yl)oxy)ethyl)piperazin-1-yl)butanamido)-3,3-dimethylbutanoyl)-4-hydroxy-N-(4-(4-methylthiazol-5-yl)benzyl)pyrrolidine-2-carboxamide], the “BRM HiBit Degradation Maximum (%)” value [1] is reported as “A (“A” indicates maximum degradation ≥75%)”, the DC50 [1] is reported as over 0.1 µM and the DC50 [2] is reported as over 1 µM. It also gave a Dmax [2] of under 50%.
`Cc1ncsc1-c1ccc(CNC(=O)[C@@H]2C[C@@H](O)CN2C(=O)[C@@H](NC(=O)CN2CCC(O[C@H]3C[C@H](Oc4cc(N5[C@@H]6CC[C@H]5CN(c5cc(-c7ccccc7O)nnc5N)C6)ccn4)C3)CC2)C(C)(C)C)cc1` [Compound 243, (2S,4R)-1-((2S)-2-(2-(4-((1r,3S)-3-((4-(3-(3-amino-6-(2-hydroxyphenyl)pyridazin-4-yl)-3,8-diazabicyclo[3.2.1]octan-8-yl)pyridin-2-yl)oxy)cyclobutoxy)piperidin-1-yl)acetamido)-3,3-dimethylbutanoyl)-4-hydroxy-N-(4-(4-methylthiazol-5-yl)benzyl)pyrrolidine-2-carboxamide, tri-formic acid] was tested, and the “BRM HiBit Degradation Maximum (%)” value [1] was “A (“A” indicates maximum degradation ≥75%)”, the DC50 [1] was under 0.01 µM and the DC50 [2] was over 0.01 µM. For the same molecule, the Dmax [2] was over 75%.
With `Cc1ncsc1-c1ccc(CNC(=O)[C@@H]2C[C@@H](O)CN2C(=O)[C@@H](NC(=O)CN2CCC(OC3CCN(CCC(=O)NCc4ccc(CCOc5cc(-c6ccccc6O)nnc5N)cc4)CC3)CC2)C(C)(C)C)cc1` [Compound 244, (2S,4R)-1-((S)-2-(2-(4-((1-(3-((4-(2-((3-amino-6-(2-hydroxyphenyl)pyridazin-4-yl)oxy)ethyl)benzyl)amino)-3-oxopropyl)piperidin-4-yl)oxy)piperidin-1-yl)acetamido)-3,3-dimethylbutanoyl)-4-hydroxy-N-(4-(4-methylthiazol-5-yl)benzyl)pyrrolidine-2-carboxamide] the “BRM HiBit Degradation Maximum (%)” value [1] was “A (“A” indicates maximum degradation ≥75%)”, the DC50 [1] was over 1 µM and the DC50 [2] was over 1 µM. For the same molecule, the Dmax [2] was under 50%.
